Test results taken from US20250296948A1, “SYNTHESIS OF NUCLEOSIDE DERIVATIVES” (Nucana plc, priority 2022, published 2025).

Key:
Type in all cases: physicochemical
[1] = 6 month dry powder stability, HPLC assay
Excerpt: (§1) NUC-3373 prepared according to Example 3 and Comparative Example 4 was packed into a transparent LDPE bag which was then filled with nitrogen and tied with a strip seal. This bag was then placed into another transparent LDPE bag which was also filled with nitrogen. A silica gel packet was placed between the two bags before the outermost bag was tied with a strip seal. These bags were then placed in a triple laminated sun light barrier bag which was sealed with a heat sealer. The bags were kept in a HDPE container.
(§2) NUC-3373 was initially assayed by HPLC after manufacture (0 months) then after 1 and 2 and/or 3 and 6 months of storage at 2-8° C., 25° C. or 40° C.

[2] = 6 month dry powder stability, Alpha Naphthol content by HPLC
Excerpt: as §1, §2
The Alpha Naphthol content of the same batches was also determined by HPLC. The levels of the alpha naphthol impurity is a key indicator of stability of the tested material.

[3] = Solution stability, alpha naphthol (0.60 RRT) in DMA:Saline (80:20 v/v); design: 0.60 RRT (Alpha Naphthol): unit not given here; conditions: 400 mg/mL in DMA:Saline (80:20 v/v)
Experimental: Stability data is also provided in Table 4, which compares the levels of alpha naphthol (0.60 RRT) present in solutions of 400 mg/mL NUC-3373, prepared by Example 3 or 4, above, in DMA:Saline (80:20 v/v) at different temperatures measured over set periods of time. The tested solutions are suitable for infusion and injection and the temperatures and times measured are representative of the environments that solutions suitable for infusion and injection would typically be stored in.
In Table 4 the two values provided for each temperature at each time period, separated by “/”, represent different preparations (samples) of that synthesis.

C[C@H](NP(=O)(OC[C@H]1O[C@@H](n2cc(F)c(=O)[nH]c2=O)CC1O)Oc1cccc2ccccc12)C(=O)OCc1ccccc1 (stereo partly drawn) [Example 3, Batch 1, 5-fluoro-2′-deoxyuridine-5′-O-[1-naphthyl (benzoxy-L-alaninyl)] phosphate]
Decrease after 6 months, HPLC assay ([1]; 2-8 ° C.): None | HPLC assay (% w/w on anhydrous and solvent free basis) ([1]; 2-8 ° C., 0 months): 100.4 % w/w | HPLC assay (% w/w on anhydrous and solvent free basis) ([1]; 2-8 ° C., 3 months): 101.5 % w/w | HPLC assay (% w/w on anhydrous and solvent free basis) ([1]; 2-8 ° C., 6 months): 100.4 % w/w | Decrease after 6 months, HPLC assay ([1]; 25 ° C.): None | HPLC assay (% w/w on anhydrous and solvent free basis) ([1]; 25 ° C., 0 months): 100.4 % w/w | HPLC assay (% w/w on anhydrous and solvent free basis) ([1]; 25 ° C., 3 months): 101.1 % w/w | HPLC assay (% w/w on anhydrous and solvent free basis) ([1]; 25 ° C., 6 months): 100.8 % w/w | Decrease after 6 months, HPLC assay ([1]; 40 ° C.): None | HPLC assay (% w/w on anhydrous and solvent free basis) ([1]; 40 ° C., 0 months): 100.4 % w/w | HPLC assay (% w/w on anhydrous and solvent free basis) ([1]; 40 ° C., 1 month): 100.0 % w/w | HPLC assay (% w/w on anhydrous and solvent free basis) ([1]; 40 ° C., 2 months): 101.5 % w/w | HPLC assay (% w/w on anhydrous and solvent free basis) ([1]; 40 ° C., 3 months): 101.6 % w/w | HPLC assay (% w/w on anhydrous and solvent free basis) ([1]; 40 ° C., 6 months): 100.7 % w/w | Increase after 6 months, Alpha Naphthol by HPLC ([2]; 2-8 ° C.): None | Alpha Naphthol by HPLC (% w/w) ([2]; 2-8 ° C., 0 months): 0.15 % w/w | Alpha Naphthol by HPLC (% w/w) ([2]; 2-8 ° C., 3 months): 0.16 % w/w | Alpha Naphthol by HPLC (% w/w) ([2]; 2-8 ° C., 6 months): 0.15 % w/w | Increase after 6 months, Alpha Naphthol by HPLC ([2]; 25 ° C.): None | Alpha Naphthol by HPLC (% w/w) ([2]; 25 ° C., 0 months): 0.15 % w/w | Alpha Naphthol by HPLC (% w/w) ([2]; 25 ° C., 3 months): 0.15 % w/w | Alpha Naphthol by HPLC (% w/w) ([2]; 25 ° C., 6 months): 0.14 % w/w | Increase after 6 months, Alpha Naphthol by HPLC ([2]; 40 ° C.): None | Alpha Naphthol by HPLC (% w/w) ([2]; 40 ° C., 0 months): 0.15 % w/w | Alpha Naphthol by HPLC (% w/w) ([2]; 40 ° C., 1 month): 0.15 % w/w | Alpha Naphthol by HPLC (% w/w) ([2]; 40 ° C., 2 months): 0.15 % w/w | Alpha Naphthol by HPLC (% w/w) ([2]; 40 ° C., 3 months): 0.14 % w/w | Alpha Naphthol by HPLC (% w/w) ([2]; 40 ° C., 6 months): 0.13 % w/w | 0.60 RRT (Alpha Naphthol) ([3]; After 1 month at 2-8° C., first preparation (before "/")): 0.07/0.07 | 0.60 RRT (Alpha Naphthol) ([3]; After 1 month at 2-8° C., second preparation (after "/")): 0.07/0.07 | 0.60 RRT (Alpha Naphthol) ([3]; After 1 month at 25 ± 5° C., first preparation (before "/")): 0.08/0.08 | 0.60 RRT (Alpha Naphthol) ([3]; After 1 month at 25 ± 5° C., second preparation (after "/")): 0.08/0.08 | 0.60 RRT (Alpha Naphthol) ([3]; After 3 months at 2-8° C., first preparation (before "/")): 0.07/0.07 | 0.60 RRT (Alpha Naphthol) ([3]; After 3 months at 2-8° C., second preparation (after "/")): 0.07/0.07 | 0.60 RRT (Alpha Naphthol) ([3]; After 3 months at 25 ± 5° C., first preparation (before "/")): 0.10 | 0.60 RRT (Alpha Naphthol) ([3]; After 3 months at 25 ± 5° C., second preparation (after "/")): 0.11 | 0.60 RRT (Alpha Naphthol) ([3]; After 6 months at 2-8° C., first preparation (before "/")): 0.07 | 0.60 RRT (Alpha Naphthol) ([3]; After 6 months at 2-8° C., second preparation (after "/")): 0.08 | 0.60 RRT (Alpha Naphthol) ([3]; After 6 months at 25 ± 5° C., first preparation (before "/")): 0.20 | 0.60 RRT (Alpha Naphthol) ([3]; After 6 months at 25 ± 5° C., second preparation (after "/")): 0.22 | 0.60 RRT (Alpha Naphthol) ([3]; After 9 months at 2-8° C., first preparation (before "/")): 0.07 | 0.60 RRT (Alpha Naphthol) ([3]; After 9 months at 2-8° C., second preparation (after "/")): 0.08 | 0.60 RRT (Alpha Naphthol) ([3]; After 9 months at 25 ± 5° C., first preparation (before "/")): 0.42 | 0.60 RRT (Alpha Naphthol) ([3]; After 9 months at 25 ± 5° C., second preparation (after "/")): 0.38 | 0.60 RRT (Alpha Naphthol) ([3]; After 15 days at 2-8° C., first preparation (before "/")): 0.07/0.07 | 0.60 RRT (Alpha Naphthol) ([3]; After 15 days at 2-8° C., second preparation (after "/")): 0.07/0.07 | 0.60 RRT (Alpha Naphthol) ([3]; After 15 days at 25 ± 5° C., first preparation (before "/")): 0.07 | 0.60 RRT (Alpha Naphthol) ([3]; After 15 days at 25 ± 5° C., second preparation (after "/")): 0.08 | 0.60 RRT (Alpha Naphthol) ([3]; Initial): 0.07
